Assay [1] deals with Miapaca-2 cells. Briefly: MiaPaca-2 Combination Cell proliferation Assay (1) with cobimetinib. Format: cell-based. Conditions: MiaPaca-2 cell proliferation, read-out: MiaPaca-2 Combo (1) IC50.
The test system of assay [2] is WM3629 cells. Briefly: WM3629 Cell Proliferation Assay (1). The assay is classed as cell-based. The method, then: WM3629 Cell Proliferation Assay (1)
WM3629 cells (#WM3629-01-0001) are obtained from Rockland Immunochemicals Inc (Gilbertsville, PA). Briefly, cells were grown in MCDB 153 medium (Sigma, #M7403, St. Louis, MO) supplemented with 20% Leibovitz's L-15 (ThermoFisher #11415-064, Waltham, MA), 2% heat inactivated fetal bovine serum (ThermoFisher, #A3840001, Waltham, MA), 5 μg/mL Insulin (Bovine Pancreas) (Sigma, #10516, St. Louis, MO), 1.68 mM Calcium Chloride (Sigma, #C-34006, St. Louis, MO) and 1% Penicillin/Streptomycin/L-Glutamine (ThermoFisher #10378016, Waltham, MA) at 37° C., 5% CO2, and 95% humidity. Cells are expanded until reaching 70-95% confluency at which point they are subcultured or harvested for assay use. A serial dilution of test compound is dispensed into a 96-well black clear bottom plate in triplicate. Four thousand five hundred cells are added per well in 200 μL complete growth medium in the 96-well plate. Plates are incubated for 67-72 hours at 37° C., 5% CO2, and 95% humidity. At the end of the incubation, 40 μL of a 440 μM solution of resazurin (Sigma, #199303, St. Louis, MO) in PBS is added to each well of the plate and plates are incubated for an additional 6-7 hours at 37° C., 5% CO2, and 95% humidity. Plates are read on a Synergy2 or equivalent reader (Biotek, Winooski VT) using an excitation of 540 nm and an emission of 600 nm. Data is analyzed using Prism software (GraphPad, San Diego, CA) to calculate IC50 values.

A value given as a limit tells only on which side of the number the result lay.

This is an account of results in patent US12319655B2, “RAF kinase inhibitors and methods of use thereof” (Deciphera Pharmaceuticals, LLC, priority 2021, dated 2025).

What is called IC50 is the point on the concentration scale where inhibition reaches its midpoint.

For `Cc1ccc(NC(=O)c2ccnc(C(C)(C)C#N)c2)cc1-c1ccnc(-c2ccnc3c2CC(=O)N3)c1` [Example 23], the IC50 in assay [1] fell in the range of 100 to 500 nM.
On the same count and under the same terms, next, `CC(=O)Nc1cc(-c2nccc(-c3cc(NC(=O)c4ccnc(C(F)(F)F)c4)ccc3C)n2)ccn1` [Example 24]: ≤ 100 nM.
On the same count and under the same terms, next, `CNC(=O)c1cc(-c2nccc(-c3cc(NC(=O)c4ccnc(C(F)(F)F)c4)ccc3C)n2)ccn1` [Example 25]: ≤ 100 nM; `CC(=O)Nc1cc(-c2cc(-c3cc(C(=O)Nc4ccnc(C(F)(F)F)c4)ccc3C)ccn2)ccn1` [Example 26]: ≤ 100 nM.
On the same count and under the same terms, under `CNC(=O)c1cc(-c2cc(-c3cc(NC(=O)c4ccnc(C(F)(F)F)c4)ccc3C)cc(C3CC3)n2)ccn1` [Example 27] stands 500 to 1000 nM; under `CC(=O)Nc1cc(-c2cccc(-c3cc(NC(=O)c4ccnc(C(F)(F)F)c4)ccc3C)c2)ccn1` [Example 28], ≤ 100 nM.
For the compound `CC(=O)Nc1cc(-c2cncc(-c3cc(NC(=O)c4ccnc(C(F)(F)F)c4)ccc3C)n2)ccn1` [Example 29], the IC50 in assay [1] is ≤ 100 nM.
On the same count and under the same terms, next, `CC(=O)Nc1cc(-c2cccc(-c3cc(NC(=O)c4ccnc(C(F)(F)F)c4)ccc3C)c2)ncn1` [Example 30]: ≤ 100 nM; `COC(=O)Nc1cc(-c2cccc(-c3cc(NC(=O)c4ccnc(C(C)(C)C#N)c4)cnc3C)c2)ccn1` [Example 282]: ≤ 100 nM; `COC(=O)Nc1cc(-c2cc(-c3cc(NC(=O)c4ccnc(C(C)(C)C#N)c4)cnc3C)ccn2)ccn1` [Example 297]: ≤ 100 nM.
With `COC(=O)Nc1cc(-c2cc(-c3cc(NC(=O)c4ccnc(C(C)(C)F)c4)c(F)cc3C)ccn2)ccn1` [Example 302], the IC50 in assay [2] and in assay [1] was ≤ 100 nM throughout.
In the case of `COC(=O)Nc1cc(-c2nccc(-c3cc(NC(=O)c4ccnc(C(C)(C)C#N)c4)c(F)cc3C)n2)ccn1` [Example 303], the IC50 in assay [2] and in assay [1] was ≤ 100 nM throughout.
On to `COC(=O)Nc1cc(-c2nccc(-c3cc(NC(=O)c4ccnc(C(C)(C)F)c4)c(F)cc3C)n2)ccn1` [Example 304], for which the IC50 in assay [2] and in assay [1] was ≤ 100 nM in each case.
`COC(=O)Nc1cc(-c2cc(-c3cc(NC(=O)c4ccnc(C(C)(C)C#N)c4)c(F)cc3C)ccn2)ccn1` [Example 308]: the IC50 in assay [2] and in assay [1] was ≤ 100 nM in each case.
For the compound `Cc1ccc(NC(=O)c2ccnc(C(C)(C)F)c2)cc1-c1cc(-c2ccnc(NC(=O)C3CC3)c2)cnn1` [Example 315], the IC50 in assay [2] and in assay [1] was ≤ 100 nM each time.
With `COC(C)(C)c1cc(C(=O)Nc2ccc(C)c(-c3cc(-c4ccnc(NC(=O)C5CC5)c4)cnn3)c2)ccn1` [Example 319], the IC50 in assay [1] was ≤ 100 nM.
As to `Cc1ccc(NC(=O)c2cnn(C(C)(C)C)c2)cc1-c1cc(-c2ccnc(NC(=O)C3CC3)c2)cnn1` [Example 321], the IC50 in assay [2] was ≤ 100 nM.
As to `CNC(=O)c1cc(-c2cnnc(-c3cc(NC(=O)c4ccnc(C(C)(C)F)c4)ccc3C)c2)ccn1` [Example 325], the IC50 in assay [2] was ≤ 100 nM.
The same measure, in the same setting: next, `CNC(=O)c1cc(-c2cnnc(-c3cc(NC(=O)c4ccnc(C(F)F)c4)ccc3C)c2)ccn1` [Example 327]: 1000 to 10000 nM.
`CNC(=O)c1cc(-c2cc(-c3cc(NC(=O)COCC4CC4)ccc3C)ccn2)ccn1` [Example 358]: the IC50 in assay [1] is 1000 to 10000 nM.
